Data reported in US20220370440A1 (Lead Discovery Center GmbH, priority 2018, published 2022).
pIC50: −log10 of the molar value.

Legend:
[1] = molecular target: T1, HER2 INS YVMA (Homo sapiens, UniProt P04626, INS775YVMA); assay: Lance Kinase Activity Assay, HER2 INS YVMA (Her2 Exon 20 INSYVMA Lance); format: biochemical; details: biochemical Lance assay
T1 construct: purchased DPF
Summary of the method: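 IC50 was fitted to sigmoidal curves of TR-FRET signal (665 and 615 nm emission after 340 nm excitation) from an Eu anti-phospho antibody binding the phosphorylated ULight peptide. The ATP-started reaction ran 1 h at RT and was then quenched with 10 mM EDTA plus antibody for a further 1 h. Compounds were tested as 8-point, 3-fold dilutions.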

[2] = molecular target: EGFR T790ML858R (Homo sapiens, UniProt P00533, L858R/T790M); assay: EGFR T790ML858R Lance assay; format: biochemical
Protocol: (§1) Inhibition is indicated as […] [nM] (“−”=not measured). Compounds having an activity designated as “A” provided an IC50≤100 nM; compounds having an activity designated as “B” provided an 100 nM<IC50≤500 nM; compounds having an activity designated as “C” provided an 500 nM<IC50≤1000 nM; compounds having an activity designated as “D” provided an 1000 nM<IC50≤100000 nM; and compounds having an activity designated as “E” provided an IC50>10000 nM.

[3] = molecular target: EGFR wt (Homo sapiens, UniProt P00533); assay: EGFR wt Lance assay; format: biochemical
Protocol: as §1

[4] = molecular target: Her2 Exon 20 INSYVMA Ba/F3 (Homo sapiens, UniProt P04626, DUP772-775, cells depend on it); assay: Her2 Exon 20 INSYVMA Ba/F3 CellTiter-Glo; format: cell-based; details: CellTiter-Glo, 72 h, read-out: Her2 Exon 20 INSYVMA Ba/F3 CTG IC50
Summary of the method: (§2)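 Using a 72 h viability readout, compound-treated Ba/F3 cells (pre-incubated 24 h after seeding) were lysed with CellTiter-Glo reagent and luminescence recorded. Potency was expressed as IC50 from a fitted dose–response curve.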

[5] = system: H1975; assay: H1975 CellTiter-Glo; format: cell-based; details: Homo sapiens, NCI-H1975; 72 h compound incubation; read-out: H1975 CTG IC50
Summary of the method: (§3)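 Seed cells; incubate 24 h at 37° C., 5% CO2; add compound in DMSO over a concentration range; incubate 72 h; add CellTiter-Glo reagent, stabilise 10 min at room temperature; read luminescence; fit IC50.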

[6] = Metabolic stability in mouse liver microsomes without cofactor NADPH; format: in vitro ADME; details: 3 μM test compound, mouse liver microsomes, without NADPH, 50 min, 37° C., LC-MS/MS
Summary of the method: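 Cofactor-free incubation: no NADPH added to mouse liver microsomes, with compound at 3 μM and 37° C. Remaining parent was quantified by LC-MS/MS at time points up to 50 minutes to track depletion.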

[7] = molecular target: EGFR Exon 20 INSNPH Ba/F3 (Homo sapiens, UniProt P00533, DUP771-773, cells depend on it); assay: EGFR Exon 20 INSNPH Ba/F3 CellTiter-Glo; format: cell-based; details: CellTiter-Glo, 72 h, read-out: EGFR Exon 20 INSNPH Ba/F3 CTG IC50
Summary of the method: as §2

[8] = system: A431; assay: A431 CellTiter-Glo; format: cell-based; details: Homo sapiens, A-431; 72 h compound incubation; read-out: A431 CTG IC50
Summary of the method: as §3

EGFR wt, sequence (P00533 25-1210): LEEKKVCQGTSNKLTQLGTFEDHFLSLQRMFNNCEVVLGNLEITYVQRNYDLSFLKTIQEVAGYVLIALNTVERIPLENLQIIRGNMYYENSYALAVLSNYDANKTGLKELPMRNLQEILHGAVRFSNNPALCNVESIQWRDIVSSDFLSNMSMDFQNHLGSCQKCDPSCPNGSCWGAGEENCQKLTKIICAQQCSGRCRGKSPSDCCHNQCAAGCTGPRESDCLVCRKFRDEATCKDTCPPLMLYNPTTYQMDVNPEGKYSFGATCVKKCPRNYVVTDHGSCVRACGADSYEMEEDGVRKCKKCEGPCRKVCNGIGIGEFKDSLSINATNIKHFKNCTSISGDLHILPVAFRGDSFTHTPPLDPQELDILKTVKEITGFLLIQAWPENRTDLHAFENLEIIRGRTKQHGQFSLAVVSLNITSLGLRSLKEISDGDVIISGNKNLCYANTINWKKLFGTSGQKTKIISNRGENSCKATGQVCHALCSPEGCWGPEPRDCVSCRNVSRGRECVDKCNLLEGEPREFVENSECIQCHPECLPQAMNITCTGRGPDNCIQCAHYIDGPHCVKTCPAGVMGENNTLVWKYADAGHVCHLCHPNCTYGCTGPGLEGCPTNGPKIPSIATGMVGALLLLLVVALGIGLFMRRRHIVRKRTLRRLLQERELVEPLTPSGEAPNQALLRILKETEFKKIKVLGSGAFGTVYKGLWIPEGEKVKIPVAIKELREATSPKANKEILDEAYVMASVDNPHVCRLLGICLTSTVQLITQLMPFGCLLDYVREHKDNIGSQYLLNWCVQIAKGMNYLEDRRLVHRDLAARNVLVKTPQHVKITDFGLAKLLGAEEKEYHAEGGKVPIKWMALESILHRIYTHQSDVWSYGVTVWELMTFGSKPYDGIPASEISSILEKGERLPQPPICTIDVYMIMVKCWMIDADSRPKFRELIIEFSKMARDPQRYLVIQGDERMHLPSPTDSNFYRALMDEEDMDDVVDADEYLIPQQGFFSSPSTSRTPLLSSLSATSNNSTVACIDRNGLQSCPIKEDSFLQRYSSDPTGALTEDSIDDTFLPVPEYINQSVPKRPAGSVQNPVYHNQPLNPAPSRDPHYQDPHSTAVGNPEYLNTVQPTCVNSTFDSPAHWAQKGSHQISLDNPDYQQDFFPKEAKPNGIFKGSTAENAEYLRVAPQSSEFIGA
T1 sequence (P04626 with tags, fused parts or gaps INS775YVMA): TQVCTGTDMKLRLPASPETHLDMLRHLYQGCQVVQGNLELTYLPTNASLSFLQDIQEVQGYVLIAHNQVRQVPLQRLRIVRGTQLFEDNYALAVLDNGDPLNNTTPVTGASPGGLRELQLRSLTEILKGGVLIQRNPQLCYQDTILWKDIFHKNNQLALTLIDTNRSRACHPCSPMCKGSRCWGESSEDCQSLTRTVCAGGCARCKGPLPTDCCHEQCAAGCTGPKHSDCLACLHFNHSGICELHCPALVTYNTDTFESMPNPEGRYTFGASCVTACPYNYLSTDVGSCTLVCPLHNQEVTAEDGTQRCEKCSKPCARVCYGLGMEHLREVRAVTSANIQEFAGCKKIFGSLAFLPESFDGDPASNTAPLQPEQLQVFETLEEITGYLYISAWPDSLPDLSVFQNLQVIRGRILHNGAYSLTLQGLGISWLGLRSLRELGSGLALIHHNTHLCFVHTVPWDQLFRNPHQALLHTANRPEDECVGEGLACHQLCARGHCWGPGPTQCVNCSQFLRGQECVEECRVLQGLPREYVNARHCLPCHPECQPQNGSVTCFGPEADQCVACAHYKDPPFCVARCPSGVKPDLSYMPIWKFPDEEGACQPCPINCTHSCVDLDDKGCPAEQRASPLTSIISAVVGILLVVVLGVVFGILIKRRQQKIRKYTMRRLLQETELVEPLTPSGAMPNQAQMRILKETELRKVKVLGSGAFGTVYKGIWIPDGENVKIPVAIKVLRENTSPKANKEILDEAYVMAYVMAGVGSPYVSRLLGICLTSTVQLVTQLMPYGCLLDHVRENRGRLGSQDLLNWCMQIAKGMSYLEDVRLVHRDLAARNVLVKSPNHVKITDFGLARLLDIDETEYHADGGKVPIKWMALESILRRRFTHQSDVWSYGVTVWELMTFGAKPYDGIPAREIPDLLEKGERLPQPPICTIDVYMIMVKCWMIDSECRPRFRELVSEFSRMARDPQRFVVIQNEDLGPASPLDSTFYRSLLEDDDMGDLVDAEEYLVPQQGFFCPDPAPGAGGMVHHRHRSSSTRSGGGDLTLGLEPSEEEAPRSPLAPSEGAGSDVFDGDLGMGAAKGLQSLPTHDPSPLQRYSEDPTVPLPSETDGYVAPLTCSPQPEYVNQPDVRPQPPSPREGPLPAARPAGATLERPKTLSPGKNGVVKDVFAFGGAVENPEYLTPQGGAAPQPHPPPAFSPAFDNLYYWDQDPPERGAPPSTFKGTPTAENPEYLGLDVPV
EGFR Exon 20 INSNPH Ba/F3, sequence (P00533 with tags, fused parts or gaps DUP771-773): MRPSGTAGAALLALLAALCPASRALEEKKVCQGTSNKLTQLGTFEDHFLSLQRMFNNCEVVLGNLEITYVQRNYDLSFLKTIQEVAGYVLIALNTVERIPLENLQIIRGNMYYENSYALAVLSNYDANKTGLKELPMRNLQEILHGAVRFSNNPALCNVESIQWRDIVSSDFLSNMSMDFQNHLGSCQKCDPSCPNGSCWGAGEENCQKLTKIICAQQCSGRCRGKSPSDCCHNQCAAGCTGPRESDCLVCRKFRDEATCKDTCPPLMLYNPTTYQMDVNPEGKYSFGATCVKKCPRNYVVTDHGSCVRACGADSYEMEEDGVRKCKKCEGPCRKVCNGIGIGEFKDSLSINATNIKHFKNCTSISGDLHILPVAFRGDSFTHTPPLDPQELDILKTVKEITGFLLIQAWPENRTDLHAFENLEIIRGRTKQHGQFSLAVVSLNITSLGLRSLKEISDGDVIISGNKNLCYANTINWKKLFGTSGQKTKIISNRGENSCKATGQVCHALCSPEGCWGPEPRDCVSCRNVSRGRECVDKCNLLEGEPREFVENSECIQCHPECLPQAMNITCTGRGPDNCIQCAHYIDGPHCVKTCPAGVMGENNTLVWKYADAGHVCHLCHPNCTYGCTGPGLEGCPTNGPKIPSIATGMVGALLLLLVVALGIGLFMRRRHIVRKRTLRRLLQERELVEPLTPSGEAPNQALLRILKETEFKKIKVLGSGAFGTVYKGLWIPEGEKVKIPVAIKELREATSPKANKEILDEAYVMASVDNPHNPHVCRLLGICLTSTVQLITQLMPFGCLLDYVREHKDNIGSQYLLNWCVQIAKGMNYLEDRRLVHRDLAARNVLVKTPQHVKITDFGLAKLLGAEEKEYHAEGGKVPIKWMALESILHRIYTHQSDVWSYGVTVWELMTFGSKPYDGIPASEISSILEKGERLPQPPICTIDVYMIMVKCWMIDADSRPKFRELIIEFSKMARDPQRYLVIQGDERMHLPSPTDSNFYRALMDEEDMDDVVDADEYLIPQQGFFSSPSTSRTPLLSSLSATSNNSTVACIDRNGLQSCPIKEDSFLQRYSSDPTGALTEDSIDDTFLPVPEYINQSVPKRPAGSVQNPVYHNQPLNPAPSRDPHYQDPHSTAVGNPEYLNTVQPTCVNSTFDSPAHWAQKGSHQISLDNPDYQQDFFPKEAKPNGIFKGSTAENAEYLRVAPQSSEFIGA
EGFR T790ML858R, sequence (P00533 25-1210 T790M/L858R): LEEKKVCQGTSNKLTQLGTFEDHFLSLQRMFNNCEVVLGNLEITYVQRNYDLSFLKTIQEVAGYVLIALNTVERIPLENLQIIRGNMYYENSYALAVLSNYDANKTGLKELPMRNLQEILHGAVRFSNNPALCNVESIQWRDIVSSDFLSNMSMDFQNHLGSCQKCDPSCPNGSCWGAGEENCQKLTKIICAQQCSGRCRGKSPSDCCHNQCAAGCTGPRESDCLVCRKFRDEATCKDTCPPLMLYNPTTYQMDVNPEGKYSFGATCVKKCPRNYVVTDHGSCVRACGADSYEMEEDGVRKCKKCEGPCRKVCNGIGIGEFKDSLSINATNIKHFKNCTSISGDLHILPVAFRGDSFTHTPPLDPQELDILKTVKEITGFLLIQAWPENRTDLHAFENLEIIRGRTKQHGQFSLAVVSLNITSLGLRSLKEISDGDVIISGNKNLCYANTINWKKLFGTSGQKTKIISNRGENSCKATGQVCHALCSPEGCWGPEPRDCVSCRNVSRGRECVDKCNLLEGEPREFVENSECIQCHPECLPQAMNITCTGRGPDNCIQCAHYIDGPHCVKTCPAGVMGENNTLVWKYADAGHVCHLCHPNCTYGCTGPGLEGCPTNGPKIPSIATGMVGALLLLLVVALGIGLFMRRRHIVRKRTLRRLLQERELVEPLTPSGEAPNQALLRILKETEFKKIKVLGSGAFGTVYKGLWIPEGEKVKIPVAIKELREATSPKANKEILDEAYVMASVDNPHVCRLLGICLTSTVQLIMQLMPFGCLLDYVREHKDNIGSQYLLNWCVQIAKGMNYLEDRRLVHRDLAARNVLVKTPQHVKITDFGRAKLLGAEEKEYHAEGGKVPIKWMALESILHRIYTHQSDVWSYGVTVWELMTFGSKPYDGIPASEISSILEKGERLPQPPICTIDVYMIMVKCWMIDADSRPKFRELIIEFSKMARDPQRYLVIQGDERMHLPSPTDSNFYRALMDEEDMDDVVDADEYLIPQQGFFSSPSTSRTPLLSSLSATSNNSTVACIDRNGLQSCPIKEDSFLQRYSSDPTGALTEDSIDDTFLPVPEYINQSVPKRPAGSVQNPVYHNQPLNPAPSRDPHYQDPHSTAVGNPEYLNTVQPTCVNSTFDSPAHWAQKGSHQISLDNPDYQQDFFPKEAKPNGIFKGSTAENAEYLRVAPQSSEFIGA

Row | SMILES | pIC50 [1] | pIC50 [2] | pIC50 [3] | GI50 [4] [nM] | pIC50 [5] | Stability in presence of mouse liver microsomes without cofactor NADPH [% remaining after 50 min] [6] [% remaining after 50 min] | GI50 [7] [nM] | pIC50 [8]
1 | C=CC(=O)N1CCc2ccc(-c3c(-c4ccc(N5CCN(CC)CC5)cc4)[nH]c4nccc(Cl)c34)cc21 [Example 63, 1-(6-(4-chloro-2-(4-(4-ethylpiperazin-1-yl)phenyl)-1H-pyrrolo[2,3-b]pyridin-3-yl)indolin-1-yl)prop-2-en-1-one] | ≥ 7.00 | ≥ 7.00 | ≥ 7.00 | 100 to 500 | ≥ 7.00 | >99 | 100 to 500 | 6.00 to 6.30
2 | C=CC(=O)Nc1cc(-c2c(-c3ccc(OCCN(C)C)cc3)[nH]c3ncc(C(=O)OC(C)C)cc23)cc(F)c1C [Example 182, isopropyl 3-(3-acrylamido-5-fluoro-4-methylphenyl)-2-(4-(2-(dimethylamino)ethoxy)phenyl)-1H-pyrrolo[2,3-b]pyridine-5-carboxylate] | ≥ 7.00 | ≥ 7.00 | ≥ 7.00 | 100 to 500 | 6.30 to 7.00 | >99 | 100 to 500 | 4.00 to 6.00
3 | C=CC(=O)Nc1cc(-c2c(-c3cnc(N4CCN(C)CC4)nc3)[nH]c3nccc(Cl)c23)ccc1C [Example 39, N-(5-(4-chloro-2-(2-(4-methylpiperazin-1-yl)pyrimidin-5-yl)-1H-pyrrolo[2,3-b]pyridin-3-yl)-2-methylphenyl)acrylamide] | 6.30 to 7.00 | ≥ 7.00 | ≥ 7.00 | 500 to 1000 | 6.30 to 7.00 | >99 | 1000 to 10000 | 4.00 to 6.00
4 | C=CC(=O)Nc1cc(-c2c(-c3ccc(N4CCN(C(C)C)CC4)cc3)[nH]c3nccc(Cl)c23)ccc1C [Example 41, N-(5-(4-chloro-2-(4-(4-isopropylpiperazin-1-yl)phenyl)-1H-pyrrolo[2,3-b]pyridin-3-yl)-2-methylphenyl)acrylamide] | ≥ 7.00 | ≥ 7.00 | ≥ 7.00 | ≤ 100 | ≥ 7.00 | >99 | ≤ 100 | 6.30 to 7.00
5 | C=CC(=O)Nc1cc(-c2c(-c3ccc(N4CCN(C)CC4)nc3)[nH]c3nccc(Cl)c23)ccc1C [Example 19, N-(5-(4-chloro-2-(6-(4-methylpiperazin-1-yl)pyridin-3-yl)-1H-pyrrolo[2,3-b]pyridin-3-yl)-2-methylphenyl)acrylamide] | 6.30 to 7.00 | ≥ 7.00 | ≥ 7.00 | 500 to 1000 | 6.30 to 7.00 | >99 | 500 to 1000 | 4.00 to 6.00
6 | C=CC(=O)Nc1cc(-c2c(-c3ccc(N4CCN(CC)CC4)cc3)[nH]c3nccc(Cl)c23)ccc1C [Example 40, N-(5-(4-chloro-2-(4-(4-ethylpiperazin-1-yl)phenyl)-1H-pyrrolo[2,3-b]pyridin-3-yl)-2-methylphenyl)acrylamide] | ≥ 7.00 | ≥ 7.00 | ≥ 7.00 | ≤ 100 | ≥ 7.00 | >99 | ≤ 100 | 6.30 to 7.00
7 | C=CC(=O)N1CCc2ccc(-c3c(-c4ccc(C(=O)N5CCN(C)CC5)cc4)[nH]c4nccc(Cl)c34)cc21 [Example 66, 1-(6-(4-chloro-2-(4-(4-methylpiperazine-1-carbonyl)phenyl)-1H-pyrrolo[2,3-b]pyridin-3-yl)indolin-1-yl)prop-2-en-1-one] | ≥ 7.00 | ≥ 7.00 | ≥ 7.00 | 100 to 500 | 6.30 to 7.00 | >99 | 500 to 1000 | 4.00 to 6.00

Second part, the molecule after the results:

Row | pIC50 [1] | pIC50 [2] | pIC50 [3] | GI50 [4] [nM] | pIC50 [5] | Stability in presence of mouse liver microsomes without cofactor NADPH [% remaining after 50 min] [6] [% remaining after 50 min] | GI50 [7] [nM] | pIC50 [8] | SMILES
8 | ≥ 7.00 | ≥ 7.00 | ≥ 7.00 | 100 to 500 | 6.30 to 7.00 | >99 | 100 to 500 | 4.00 to 6.00 | C=CC(=O)Nc1cc(-c2c(-c3cccc(OCCN4CCCC4)c3)[nH]c3ncc(C(=O)OC(C)C)cc23)ccc1C [Example 170, isopropyl 3-(3-acrylamido-4-methylphenyl)-2-(3-(2-(pyrrolidin-1-yl)ethoxy)phenyl)-1H-pyrrolo[2,3-b]pyridine-5-carboxylate]
9 | ≥ 7.00 | ≥ 7.00 | ≥ 7.00 | 500 to 1000 | 6.00 to 6.30 | >99 | 1000 to 10000 | 4.00 to 6.00 | C=CC(=O)N1CCCc2ccc(-c3c(-c4ccc(OCCN(C)C)cc4)[nH]c4nccc(Cl)c34)cc21 [Example 92, 1-(7-(4-chloro-2-(4-(2-(dimethylamino)ethoxy)phenyl)-1H-pyrrolo[2,3-b]pyridin-3-yl)-3,4-dihydroquinolin-1(2H)-yl)prop-2-en-1-one]
10 | ≥ 7.00 | ≥ 7.00 | ≥ 7.00 | 100 to 500 | 6.00 to 6.30 | >99 | 100 to 500 | 6.00 to 6.30 | C=CC(=O)Nc1cc(-c2c(-c3ccc(N4CCN(C)CC4)cc3)[nH]c3ncc(C(=O)NC(C)C)cc23)ccc1C [Example 119, 3-(3-acrylamido-4-methylphenyl)-N-isopropyl-2-(4-(4-methylpiperazin-1-yl)phenyl)-1H-pyrrolo[2,3-b]pyridine-5-carboxamide]
11 | ≥ 7.00 | ≥ 7.00 | ≥ 7.00 | 100 to 500 | ≥ 7.00 | >99 | ≤ 100 | 6.30 to 7.00 | C=CC(=O)Nc1cc(-c2c(-c3ccc(N4CCN(C)CC4)cc3)[nH]c3ncc(C#N)cc23)ccc1C [Example 97, N-(5-(5-cyano-2-(4-(4-methylpiperazin-1-yl)phenyl)-1H-pyrrolo[2,3-b]pyridin-3-yl)-2-methylphenyl)acrylamide 2,2,2-trifluoroacetate]
12 | ≥ 7.00 | ≥ 7.00 | ≥ 7.00 | 100 to 500 | 6.30 to 7.00 | 94 | 100 to 500 | 6.00 to 6.30 | C=CC(=O)N1CCOc2ccc(-c3c(-c4ccc(N(C)CCN(C)C)cc4)[nH]c4nccc(Cl)c34)cc21 [Example 84, 1-(6-(4-chloro-2-(4-((2-(dimethylamino)ethyl)(methyl)amino)phenyl)-1H-pyrrolo[2,3-b]pyridin-3-yl)-2H-benzo[b][1,4]oxazin-4(3H)-yl)prop-2-en-1-one]
13 | ≥ 7.00 | ≥ 7.00 | ≥ 7.00 | > 10000 | < 5.00 | 92 | > 10000 | < 5.00 | C=CC(=O)Nc1cc(-c2c(-c3ccc(N4CCN(C)CC4)cc3)[nH]c3ncc(C(=O)O)cc23)ccc1C [Example 116, 3-(3-acrylamido-4-methylphenyl)-2-(4-(4-methylpiperazin-1-yl)phenyl)-1H-pyrrolo[2,3-b]pyridine-5-carboxylic acid 2,2,2-trifluoroacetate]
14 | ≥ 7.00 | ≥ 7.00 | ≥ 7.00 | 100 to 500 | 6.30 to 7.00 | >99 | 100 to 500 | 6.00 to 6.30 | C=CC(=O)N1CCOc2ccc(-c3c(-c4ccc(N5CCN(C(C)C)CC5)cc4)[nH]c4nccc(Cl)c34)cc21 [Example 85, 1-(6-(4-chloro-2-(4-(4-isopropylpiperazin-1-yl)phenyl)-1H-pyrrolo[2,3-b]pyridin-3-yl)-2H-benzo[b][1,4]oxazin-4(3H)-yl)prop-2-en-1-one]
